# According to patent US5817669A, “Compounds, processes for the preparation thereof and anti-tumor agents” (Dainippon Pharmaceutical Co., Ltd., priority 1994, dated 1998):
# Read-outs that look alike come from different tables or passages of the source.
# Tests used:
# [1] = tested on: A427 human lung cancer; assay: In vitro anti-tumor activity against A-427 human lung cancer (MTT); format: cell-based; settings: A-427, 72 h, MTT, read-out: IC50
# Procedure: (§1) A culture medium containing 500 to 2,000 human cancer cells was put in an amount of 0.1 ml in each well of 96-well plate, and the cells were cultured for 20 hours under a condition of 37° C. and 5% carbon dioxide gas in air. After the culturing, a solution of test compounds of predetermined concentration was added, and then, the cells were cultured for further 72 hours. After the culturing, an MTT (5 mg/ml) solution was added in an amount of 0.01 ml in the respective wells, and the cells were cultured for further 4 hours. The supernatants of the culture medium were removed by suction, and then, 0.1 ml of dimethyl sulfoxide was put in respective well to dissolve the formed formazan, and, moreover, 0.1 ml of dimethyl sulfoxide was added.
# [2] = tested on: HMV2 human melanoma; assay: In vitro anti-tumor activity against HMV-2 human melanoma (MTT); format: cell-based; settings: HMV-2, 72 h, MTT, read-out: IC50
# Procedure: as §1
# [3] = tested on: murine P388 lymphocytic leukemia cells; assay: In vitro anti-tumor activity against murine P388 lymphocytic leukemia cells (MTT, 72 h); format: cell-based; settings: Mus musculus; murine P388 cells, 72 h, MTT; read-out: IC50 (50% proliferation inhibitory concentration)
# Procedure: Test compounds were tested for anti-tumor activity according to MTT [3-(4,5-dimethylthiazol-2-yl)-2,5-diphenyltetrazolium bromide] method, using murine P388 lymphocytic leukemia cells. […] The culture medium was centrifuged (4° C., 2,000 rpm for 20 minutes), and thus, the supernatants were removed by suction. Then, 0.1 ml of dimethyl sulfoxide was put in each well to dissolve the formed formazan, and, subsequently, another 0.1 ml of dimethyl sulfoxide was added. The absorbance (OD) of each of the obtained solutions was measured by use of Multiskan Bichromatic (main wavelength 570 nm, sub-wavelength 690 nm). […] IC50 :μg/ml) were calculated by the least squares method.
# [4] = tested on: AZ521 human stomach cancer; assay: In vitro anti-tumor activity against AZ-521 human stomach cancer (MTT); format: cell-based; settings: AZ-521, 72 h, MTT, read-out: IC50
# Procedure: as §1
# [5] = tested on: KB human nasopharynx cancer; assay: In vitro anti-tumor activity against KB human nasopharynx cancer (MTT); format: cell-based; settings: KB, 72 h, MTT, read-out: IC50
# Procedure: as §1
# [6] = tested on: murine P388 lymphocytic leukemia cells; assay: Increases in life span of mice implanted with murine P388 lymphocytic leukemia cells; format: in vivo, SLC: BDF1 mice; settings: ip; for ILS at 3.13 mg/kg / ILS at 12.5 mg/kg / ILS at 50 mg/kg: Mus musculus, P388, ip, 720 h
# Procedure: 1×10^6 murine P388 lymphocytic leukemia cells were intraperitoneally implanted in each of SLC: BDF1 mice (8 to 10 weeks old, female, 7 animals per one group). A test compound (drug) was either dissolved in 0.1 N--NaOH or suspended in 0.4% carboxymethylcellulose solution, and the resultant solution or suspension was diluted with distilled water or 0.4% carboxymethylcellulose solution so as to give predetermined concentrations for administration. The obtained solution was intraperitoneally (ip) administered twice, namely on the day following the implantation (1st day) and the 5th day, each 0.2 ml. The life and death of the mice were observed over a period of 30 days, and the median survival time (hereinafter referred to as MST) was determined for each group, and, thus, the increase in life span (ILS; %) was calculated according to the following equation:
# ILS (%)=[{(MST of the test group)/(MST of the control group)}-1]×100
# Drug effect was judged in the following manner, according to the criterion of U.S. National Cancer Institute (NCI):
# ILS=75% or higher: ++ (remarkably effective);
# 20 to 74%: + (effective);
# 19% or lower: - (ineffective)
# [7] = tested on: MKN45 human stomach cancer; assay: In vitro anti-tumor activity against MKN45 human stomach cancer (MTT); format: cell-based; settings: MKN-45, MKN45, 72 h, MTT, read-out: IC50
# Procedure: as §1
# [8] = tested on: colon 26 murine tumor cells; assay: Tumor growth inhibition effect on colon 26 murine tumor cells implanted mice; format: in vivo, SLC: CDF1 mice; settings: Mus musculus, Colon 26, 504 h, ip, days 1-9, day 21 or 22, read-out: Tumor growth inhibition rate IR (%); for inhibition in vivo at 1.56 mg/kg: 1.56 mg/kg once a day; for inhibition in vivo at 3.13 mg/kg: 3.13 mg/kg once a day
# Procedure: A 2% brei of colon 26 murine tumor cells was intracutaneously implanted each 0.1 ml in the abdominal part of SLC: CDF1 female mice (7 to 9 weeks old, 7 animals per one group). […] The obtained solutions were intraperitoneally (ip) administered each 0.2 ml once a day, from the day (1st day) following the implantation to the 9th day. On the 21st or 22nd day after the implantation, tumor weight was estimated from tumor diameters, and thus, the tumor growth inhibition rate (IR %) of the drug administered group in comparison with the control group was calculated according to the following equation. IR (%)=[1-{(MTW in the treated group)/(MTW in the control group)}]×10 0 MTW: mean tumor weight
# [9] = tested on: WiDr human colorectal cancer; assay: In vitro anti-tumor activity against WiDr human colorectal cancer (MTT); format: cell-based; settings: 72 h, MTT, read-out: IC50
# Procedure: as §1
# [10] = tested on: C33A human cervix cancer; assay: In vitro anti-tumor activity against C-33A human cervix cancer (MTT); format: cell-based; settings: C-33A, 72 h, MTT, read-out: IC50
# Procedure: as §1
# [11] = NCI criterion, 3.13 mg/kg, read-out: Evaluation
# [12] = NCI criterion, 12.5 mg/kg, read-out: Evaluation
# [13] = NCI criterion, read-out: Evaluation
# [14] = 3.13 mg/kg, days 1 and 5, in suspension, read-out: ILS (%) (in suspension)
# [15] = 12.5 mg/kg, days 1 and 5, in suspension, read-out: ILS (%) (in suspension)
# [16] = days 1 and 5, in suspension, read-out: ILS (%) (in suspension)
Structure (SMILES),IC50 [1] [µg/mL],IC50 [2] [µg/mL],IC50 [3] [µg/mL],IC50 [4] [µg/mL],IC50 [5] [µg/mL],"ILS at 3.13 mg/kg [6, 11] [%]","ILS at 12.5 mg/kg [6, 12] [%]","ILS at 50 mg/kg [6, 13] [%]","ILS at 3.13 mg/kg [6, 14] [%]","ILS at 12.5 mg/kg [6, 15] [%]","ILS at 50 mg/kg [6, 16] [%]",IC50 [7] [µg/mL],inhibition in vivo at 1.56 mg/kg [8] [%],inhibition in vivo at 3.13 mg/kg [8] [%],IC50 [9] [µg/mL],IC50 [10] [µg/mL],further results
C[C@@H]1CN(c2ccc3c(=O)c(C(=O)O)cn(-c4nccs4)c3n2)C[C@H]1N (relative stereo) [Compound 7],0.0933,0.139,0.00955,0.0719,0.111,> 75,> 75,> 75,75,100,188,0.112,61,95,0.314,0.105,–
"CN[C@@H]1CN(c2ccc3c(=O)c(C(=O)O)cn(-c4nccs4)c3n2)C[C@H]1OC.Cl (single isomer, unassigned) [Compound 1-3, (-)-1,4-Dihydro-7-(trans-3-methoxy-4-methylamino-1-pyrrolidinyl)-4-oxo-1-(2-thiazolyl)-1,8-naphthyridine-3-carboxylic acid hydrochloride]",0.107,0.234,0.02,0.11,0.208,–,–,> 75,–,–,200,0.222,50,–,0.503,0.148,"ILS at 50 mg/kg ([6]; days 1 and 5, in solution, read-out: ILS (%) (in solution)): > 275%; Evaluation ([6]; NCI criterion, 3.13 mg/kg): + (20 to 74%: + (effective)); Evaluation ([6]; NCI criterion, 6.25 mg/kg): ++ (ILS=75% or higher: ++ (remarkably effective)); Evaluation ([6]; NCI criterion, 12.5 mg/kg): ++ (ILS=75% or higher: ++ (remarkably effective)); Evaluation ([6]; NCI criterion, 25 mg/kg): ++ (ILS=75% or higher: ++ (remarkably effective)); ILS (%) (in solution) ([6]; 3.13 mg/kg, days 1 and 5, in solution): 63%; ILS (%) (in suspension) ([6]; 3.13 mg/kg, days 1 and 5, in suspension): 63%; ILS (%) (in solution) ([6]; 6.25 mg/kg, days 1 and 5, in solution): 88%; ILS (%) (in solution) ([6]; 12.5 mg/kg, days 1 and 5, in solution): 138%; ILS (%) (in suspension) ([6]; 12.5 mg/kg, days 1 and 5, in suspension): 125%; ILS (%) (in solution) ([6]; 25 mg/kg, days 1 and 5, in solution): 200%; inhibition in vivo at 2.21 mg/kg ([8]; 2.21 mg/kg once a day): 75%"
NC1CCN(c2ncc3c(=O)c(C(=O)O)cn(-c4nccs4)c3n2)C1 (stereo not drawn) [Compound 14],–,0.872,0.0466,0.31,0.636,20 to 74,> 75,> 75,63,113,> 275,–,–,55,–,–,inhibition in vivo at 6.25 mg/kg ([8]; 6.25 mg/kg once a day): 68%
CCN[C@@H]1CN(c2ccc3c(=O)c(C(=O)O)cn(-c4nccs4)c3n2)C[C@H]1OC (relative stereo) [Compound 13],0.15,0.171,0.0252,0.0717,0.15,20 to 74,> 75,> 75,25,100,213,0.139,41,–,0.268,0.138,–
